Data on 23 compounds can be found in US20100022521A1, “COMPOUNDS” (Hansa Metallwerke AG, priority 2005, published 2010).

The assay has as its target mGluR5 (UniProt P31424). Briefly: MGluR5 receptor binding test ([3H]-M-MPEP displacement). Further details: species or system rat. Conditions: radioligand [3H]-M-MPEP (2 nM); species not given; read-out: mGlu5 Ki. The procedure:
MGluR5 Receptor Binding Tests
Rat cerebro-cortical membrane preparation was used to determine the binding characteristics of reference compounds and novel compounds to the rat mGluR5. The A18 cell line expressing hmGluR5a (purchased from Euroscreen) was used to determine binding characteristics of the chemical compounds to the human mGluR5a receptor. As radioligand [3H]-M-MPEP (2 nM) was used. The nonspecific binding was determined in the presence of 10 μM M-MPEP.
The term Ki denotes a dissociation constant, usually derived from enzyme kinetics or from competition with a known ligand. `O=S(=O)(c1ccc(Cl)cc1)c1sc2nccc(O)c2c1-c1ccc(Cl)cc1` [Compound 103, 2-(4-chloro-benzenesulfonyl)-3-(4-chloro-phenyl)-4-hydroxy-thieno[2,3-b]pyridine]: the inhibition constant (Ki) was 500 to 1500 nM.

Turning to `CC1CCN(c2c(S(=O)(=O)c3ccc(Cl)cc3)sc3ncc(N)cc23)CC1` [Compound 104, 5-Amino-2-(4-chloro-benzenesulfonyl)-3-(4-methyl-piperidine)-thieno[2,3-b]pyridine], the Ki was under 500 nM.

For the compound `CC(=O)N1CCN(c2c(S(=O)(=O)c3ccc(Cl)cc3)sc3ncccc23)CC1` [Compound 105], the inhibitory constant (Ki) is over 1500 nM.

In the case of `CN1CCN(c2c(S(=O)(=O)c3ccc(Cl)cc3)sc3ncccc23)CC1` [Compound 106], the Ki was under 500 nM.

Regarding `CC1CCN(c2c(S(=O)(=O)c3ccc(Cl)cc3)sc3ncc(O)cc23)CC1` [Compound 107], the Ki was under 500 nM.

For the compound `CS(=O)(=O)c1ccc(-c2c(S(=O)(=O)c3ccc(Cl)cc3)sc3ncccc23)cc1` [Compound 108], the Ki was over 1500 nM.

As to `O=S(=O)(c1ccc(Cl)cc1)c1sc2ncccc2c1-c1cccc(F)c1` [Compound 109], the Ki is under 500 nM.

Consider `N#Cc1cc(F)cc(S(=O)(=O)c2sc3ncccc3c2-c2cccc(F)c2)c1` [Compound 110, 2-(3-Cyano-5-fluoro-benzenesulfonyl)-3-(3-fluoro-phenyl)-thieno[2,3-b]pyridine], for which the Ki was under 500 nM.

`CNC(=O)Nc1c(S(=O)(=O)c2ccc(OC)cc2)sc2ncccc12` [Compound 111]: the Ki was over 1500 nM.

For `CNC(=O)Nc1c(S(=O)(=O)c2ccc(Cl)cc2)sc2ncccc12` [Compound 112], the Ki is over 1500 nM.

For the compound `O=S(=O)(c1ccc(Cl)cc1)c1sc2ncccc2c1-c1ccccc1Cl` [Compound 113], the Ki was under 500 nM.

Turning to `O=S(=O)(c1ccc(Cl)cc1)c1sc2ncccc2c1-c1ccccc1F` [Compound 114], the inhibitory constant (Ki) was under 500 nM.

Turning to `Nc1cnc2sc(S(=O)(=O)c3ccc(Cl)cc3)c(-c3cccc(F)c3)c2c1` [Compound 115, 5-Amino-2-(4-chloro-benzenesulfonyl)-3-(3-fluor-phenyl)-thieno[2,3-b]pyridine], the Ki was under 500 nM.

`CS(=O)(=O)NC1CCN(c2c(S(=O)(=O)c3ccc(Cl)cc3)sc3ncccc23)CC1` [Compound 116]: the Ki was over 1500 nM.

With `O=S(=O)(c1ccc(Cl)cc1)c1sc2ncccc2c1N1CC[S+]([O-])CC1` [Compound 117], the Ki was over 1500 nM.

As for `O=S(=O)(c1ccc(Cl)cc1)c1sc2ncccc2c1N1CCN(c2ccc(F)cc2)CC1` [Compound 118], the Ki was over 1500 nM.

In the case of `CC1CCN(c2c(S(=O)(=O)c3ccc(Cl)cc3)sc3nc(Cl)ccc23)CC1` [Compound 119], the inhibition constant Ki is under 500 nM.

For the compound `COc1ccc(S(=O)(=O)c2sc3ncccc3c2NC(=O)N2CCC(C)CC2)cc1` [Compound 120, N-[2-(4-methoxy-benzenesulfonyl)-thieno[2,3b]pyridin-3-yl]-4-methyl-piperidine-1-carboxamide], the Ki was over 1500 nM.

Take `O=C(Nc1c(S(=O)(=O)c2ccc(Cl)cc2)sc2ncccc12)N1CCCCC1` [Compound 121]: the Ki is over 1500 nM.

For `CN1CCN(C(=O)Nc2c(S(=O)(=O)c3ccc(Cl)cc3)sc3ncccc23)CC1` [Compound 122], the Ki was over 1500 nM.

For `O=S(=O)(c1ccc(Cl)cc1)c1sc2ncc(F)cc2c1-c1ccc(Cl)cc1` [Compound 123, 2-(4-Chloro-benzenesulfonyl)-3-(4-chloro-phenyl)-5-fluoro-thieno[2,3-b]pyridine], the Ki was under 500 nM.

Turning to `CN(C)c1ccc(S(=O)(=O)c2sc3nccc(N(C)C)c3c2-c2ccc(Cl)cc2)cc1` [Compound 124, 3-(4-chloro-phenyl)-4-dimethylamino-2-(4-dimethylamino-benzenesulfonyl)-thieno[2,3-b]pyridine], the Ki was over 1500 nM.

Regarding `Nc1ccnc2sc(S(=O)(=O)c3ccc(Cl)cc3)c(-c3ccc(Cl)cc3)c12` [Compound 125, 4-Amino-2-(4-chloro-benzenesulfonyl)-3-(4-chloro-phenyl)-thieno[2,3-b]pyridine], the Ki was under 500 nM.
